System: lasered monkey model of ocular hypertension
Test: IOP response in the lasered monkey model of ocular hypertension
Assay type: in vivo, cynomolgus monkeys
Conditions: for IOP Response % Change, 1 hr / IOP decrease from baseline (mmHg) / IOP Response % Change, 3 hr / IOP Response % Change, 6 hr: 300 μg topical, one 30 μL aliquot to right (lasered) eye, change from baseline IOP; for effect on IOP (in words): dosed at 300 μg, lasered monkey model of ocular hypertension
Experimental: Intraocular pressure was determined with an Alcon Pneumatonometer after light corneal anesthesia with 0.1% proparacaine. Eyes were washed with saline after-each measurement. After a baseline IOP measurement, test compound was instilled in one 30 μL aliquot to the right eyes only of nine cynomolgus monkeys. Vehicle was instilled in the right eyes of six additional animals. Subsequent IOP measurements were taken at 1, 3, and 6 hours. A compound is considered efficacious in this model of ocular hypertension if there is a decrease in the baseline IOP of the lasered eye (O.D.) of at least 20% following topical administration.

Structure (SMILES)	IOP Response % Change, 1 hr (1 hr after dosing)	IOP decrease from baseline (mmHg) (1 hr after dosing)	IOP Response % Change, 3 hr (3 hr after dosing)	IOP decrease from baseline (mmHg) (3 hr after dosing)	IOP Response % Change, 6 hr (6 hr after dosing)	IOP decrease from baseline (mmHg) (6 hr after dosing)	effect on IOP (in words)
CC(N)Cn1ncc2ccc(O)cc21 (single isomer, unassigned; isomer 1) [S-(+)-isomer, 1-(2-aminopropyl)-indazol-6-ol]	−15.0%	6.4 mmHg	−35.3%	14.8 mmHg	−40.8%	17.1 mmHg	significant decrease in IOP
CC(N)Cn1ncc2ccc(O)cc21 (centres unmarked) [Compound, 1-(2-aminopropyl)-indazol-6-ol]	−17.6%	7.3 mmHg	−28.1%	11.8 mmHg	−33.8%	14.6 mmHg	significant decrease in IOP

From patent US6927233B1, “5ht2 agonists for controlling IOP and treating glaucoma” (Alcon, Inc., priority 2000, dated 2005)
